According to patent US20220372040A1, “METTL3 MODULATORS” (Accent Therapeutics, Inc., priority 2020, published 2022):
Like-named read-outs stand apart in the source and are kept apart here.

Legend:
[1] = target: PRMT5-MEP50 (Homo sapiens, UniProt O14744); assay: PRMT5 assay (3H-SAM flashplate scintillation); assay type: biochemical; details: PRMT5-MEP50 2.5 nM, histone H4 peptide 100 nM, 3H-SAM 250 nM, 60 min
Outline: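 Radiometric methyltransferase read-out: after 60 min reaction, excess unlabelled SAM (15 μM) stops turnover and biotinylated H4 peptide (100 nM) carrying 3H-methyl from 250 nM 3H-SAM is captured on streptavidin flashplates (2 h, 25° C) for scintillation counting. Enzyme, 2.5 nM PRMT5-MEP50, was preincubated 5 min with compound in pH 8.0 Tris buffer with DTT and Tween.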

[2] = target: METTL3/METTL14 (Homo sapiens, UniProt Q86U44); assay: METTL3-14 standard enzyme assay (3H-SAM flashplate scintillation); assay type: biochemical; details: METTL3/METTL14 2.5 nM, RNA 100 nM, 3H-SAM 100 nM, 30 min
Outline: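 Radiometric methylation readout: biotinylated RNA substrate UCUGGACUAAA and 3H-SAM, each 100 nM final, reacted 30 min at ambient temperature with 2.5 nM enzyme complex after 5 min compound preincubation (HEPES pH 7.5 buffer, KCl, MgCl2, DTT). Excess unlabelled SAM (15 μM) stopped reactions before streptavidin flashplate capture.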

[3] = tested on: MOLM-13 cells; assay: MOLM-13 96 Hour cell proliferation assay (Cell Titer-Glo); assay type: cell-based; details: Homo sapiens
Protocol: MOLM-13 96 Hour Cell Proliferation Assay
MOLM-13 (DSMZ) cells were seeded at 600 cells per well in a volume of 44 μL in a Greiner Bio-One CELLSTAR™ 384 Well Polystyrene Cell Culture clear bottom microplate in RPMI 1640 media containing 10% fetal bovine serum using a Multidrop Combi (ThermoFisher Scientific). Cells were incubated overnight at 37° C. in a humidified tissue culture incubator. To prevent evaporation or to reduce edge effect, add 50 μL or more H2O to an empty plate, cover, and place on top of the cell plates. The Mosquito® HTS Liquid Handler was used to make a compound/media intermediate plate by aliquoting 1 μL of compound from the initial compound dilution plate (concentrations ranging from 10.0 mM to 38.0 nM in 100% DMSO) into Bio-One 384-well polypropylene conical bottom microplate containing 49 μL of media containing the appropriate serum (50-fold dilution, 2% DMSO, compound concentrations ranging from 200.0 μM and […]). The Apricot liquid handling system was used to transfer 6.2 μL compounds from the intermediate plate into the seeding plate containing 44 μL cells (8-fold dilution spanning concentrations 25.0 μM to […], 0.25% DMSO final), and placed in a humidified tissue culture incubator at 37° C. After 96 hours, 25 μL of Cell Titer-Glo reagent (Promega) was added to each well using an Integra liquid handling system. The plate was protected from light using TopSeal-A (Black) film over the entire plate, added White Bottom seal film on the bottom of the entire plate for a better reading on the Envision, and placed on an IKA plate shaker for at 300 rpm for 10 minutes at room temperature. The plate was read on an EnVision plate reader (Perkin Elmer) using the Ultra Sensitive Luminescence protocol. Data analysis was performed by normalizing the raw luminescence units to an average of the positive control values for staurosporine (100% cell death) and the negative control values for DMSO (0% cell death). An IC50 was calculated using a 4-parameter logistic nonlinear regression model in GraphPad Prism.

[4] = target: METTL1/WDR4 (Homo sapiens, UniProt Q9UBP6); assay: METTL1 assay (3H-SAM flashplate scintillation); assay type: biochemical
Outline: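 Radiometric methyltransfer by METTL1/WDR4 (6.25 nM f.c., 5 min preincubation) at ambient temperature in HEPES pH 7.5, KCl, MgCl2, DTT; started with 25 nM 3′-biotinylated RNA and 60 nM 3H-SAM, run 20 min, quenched with 15 μM cold SAM. Product captured on streptavidin flashplates (2 h, 25° C), counted by scintillation.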

Chain of METTL3/METTL14 (Q86U44 whole entry, species assumed): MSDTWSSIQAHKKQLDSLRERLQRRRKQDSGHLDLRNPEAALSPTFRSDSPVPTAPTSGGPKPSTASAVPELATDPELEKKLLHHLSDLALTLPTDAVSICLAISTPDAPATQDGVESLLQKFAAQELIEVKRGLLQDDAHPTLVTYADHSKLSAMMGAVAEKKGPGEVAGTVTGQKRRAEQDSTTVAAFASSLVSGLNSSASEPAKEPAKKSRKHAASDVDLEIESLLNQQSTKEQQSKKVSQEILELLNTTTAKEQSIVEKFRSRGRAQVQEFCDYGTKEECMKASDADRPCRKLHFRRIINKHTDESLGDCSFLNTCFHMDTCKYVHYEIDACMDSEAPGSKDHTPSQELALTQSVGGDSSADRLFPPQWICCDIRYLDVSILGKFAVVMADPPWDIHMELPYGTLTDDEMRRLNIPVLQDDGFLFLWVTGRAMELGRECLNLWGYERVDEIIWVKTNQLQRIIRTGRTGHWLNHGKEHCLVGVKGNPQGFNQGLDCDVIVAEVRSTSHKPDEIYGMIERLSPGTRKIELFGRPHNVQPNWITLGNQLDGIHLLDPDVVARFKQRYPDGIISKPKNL
Chain of METTL3/METTL14 (Q9HCE5 whole entry partner, species assumed): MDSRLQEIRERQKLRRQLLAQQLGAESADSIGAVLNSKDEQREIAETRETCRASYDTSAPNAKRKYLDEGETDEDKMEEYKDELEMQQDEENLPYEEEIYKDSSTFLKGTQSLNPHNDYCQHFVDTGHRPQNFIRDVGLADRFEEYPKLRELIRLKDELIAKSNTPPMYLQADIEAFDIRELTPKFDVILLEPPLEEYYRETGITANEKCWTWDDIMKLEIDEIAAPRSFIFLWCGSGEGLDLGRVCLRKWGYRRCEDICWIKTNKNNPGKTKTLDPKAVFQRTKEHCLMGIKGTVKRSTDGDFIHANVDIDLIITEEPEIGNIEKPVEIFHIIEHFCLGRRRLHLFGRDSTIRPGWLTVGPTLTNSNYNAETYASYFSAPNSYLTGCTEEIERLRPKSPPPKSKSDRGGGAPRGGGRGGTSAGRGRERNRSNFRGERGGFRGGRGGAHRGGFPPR
Chain of PRMT5-MEP50 (O14744 whole entry): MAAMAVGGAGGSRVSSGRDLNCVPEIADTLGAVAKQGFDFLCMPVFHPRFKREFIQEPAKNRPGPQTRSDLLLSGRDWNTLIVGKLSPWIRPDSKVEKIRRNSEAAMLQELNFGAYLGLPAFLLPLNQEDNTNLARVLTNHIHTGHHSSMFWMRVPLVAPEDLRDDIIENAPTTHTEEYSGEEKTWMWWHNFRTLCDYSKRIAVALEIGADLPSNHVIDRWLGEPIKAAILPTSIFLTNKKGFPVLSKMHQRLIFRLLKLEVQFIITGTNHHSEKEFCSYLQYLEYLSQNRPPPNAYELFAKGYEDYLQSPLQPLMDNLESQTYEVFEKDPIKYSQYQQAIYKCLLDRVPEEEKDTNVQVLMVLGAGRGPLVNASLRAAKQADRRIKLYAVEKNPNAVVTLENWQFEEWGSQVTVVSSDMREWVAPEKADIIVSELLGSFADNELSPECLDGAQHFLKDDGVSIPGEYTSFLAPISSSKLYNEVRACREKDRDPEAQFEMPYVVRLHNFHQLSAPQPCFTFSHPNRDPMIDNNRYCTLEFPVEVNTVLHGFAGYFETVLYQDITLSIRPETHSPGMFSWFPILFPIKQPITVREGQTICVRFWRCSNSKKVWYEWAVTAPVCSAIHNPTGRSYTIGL
Chain of PRMT5-MEP50 (Q9BQA1 whole entry partner): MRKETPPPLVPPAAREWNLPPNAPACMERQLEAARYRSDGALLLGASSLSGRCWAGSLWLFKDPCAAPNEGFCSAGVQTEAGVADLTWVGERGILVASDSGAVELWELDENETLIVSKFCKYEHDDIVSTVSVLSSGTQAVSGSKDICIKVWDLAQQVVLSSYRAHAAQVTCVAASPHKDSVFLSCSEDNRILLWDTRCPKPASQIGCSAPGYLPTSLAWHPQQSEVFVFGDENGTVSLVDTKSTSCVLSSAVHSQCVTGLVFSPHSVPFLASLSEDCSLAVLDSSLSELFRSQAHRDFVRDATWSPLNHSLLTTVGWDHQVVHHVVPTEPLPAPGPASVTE
Chain of METTL1/WDR4 (Q9UBP6 whole entry, species assumed): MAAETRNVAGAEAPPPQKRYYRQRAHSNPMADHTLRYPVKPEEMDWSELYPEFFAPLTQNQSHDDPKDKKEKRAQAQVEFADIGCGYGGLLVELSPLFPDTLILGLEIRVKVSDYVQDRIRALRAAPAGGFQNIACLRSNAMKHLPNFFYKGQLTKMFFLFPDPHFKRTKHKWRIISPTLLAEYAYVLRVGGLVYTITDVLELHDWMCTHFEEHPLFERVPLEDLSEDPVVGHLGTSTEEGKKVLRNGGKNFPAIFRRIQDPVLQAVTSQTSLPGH
Chain of METTL1/WDR4 (P57081 whole entry partner, species assumed): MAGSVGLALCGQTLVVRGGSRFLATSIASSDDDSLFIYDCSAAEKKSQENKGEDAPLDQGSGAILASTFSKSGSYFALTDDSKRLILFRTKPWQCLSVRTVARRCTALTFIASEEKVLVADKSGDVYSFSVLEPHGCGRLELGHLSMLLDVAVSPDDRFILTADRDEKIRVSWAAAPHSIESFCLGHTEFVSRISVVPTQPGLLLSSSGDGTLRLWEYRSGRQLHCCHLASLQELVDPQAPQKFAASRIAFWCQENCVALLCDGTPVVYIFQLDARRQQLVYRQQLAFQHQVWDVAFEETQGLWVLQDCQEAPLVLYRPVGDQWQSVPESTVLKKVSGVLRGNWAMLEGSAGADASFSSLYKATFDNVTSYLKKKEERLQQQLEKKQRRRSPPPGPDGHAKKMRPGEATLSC

SMILES | IC50 [1] [µM] | IC50 [2] [µM] | IC50 [3] [µM] | IC50 [4] [µM] | IC50 ([4]; METTL1/WDR4 6.25 nM, RNA 25 nM, 3H-SAM 60 nM, 20 min, read-out: METTL1 IC50) [µM]
CNc1ccc2ccc(OCc3cncc(-n4cc(C5CCCO5)c5c(N)ncnc54)c3)cc2n1 (stereo not shown) [Compound I-97] | > 1 | < 0.01 | < 1 | > 1 | 
CC(C)c1cc(N2CCC2)c2ccc(OCc3cncc(-n4ccc5c(N)ncnc54)c3)cc2n1 [Compound I-99] | > 1 | < 0.01 | < 1 |  | > 1
CCc1cc(N2CCN(C)CC2)c2ccc(OCc3cncc(-n4ccc5c(N)ncnc54)c3)cc2n1 [Compound I-107] | > 1 | < 0.01 | < 1 |  | 
CCc1cc(N2CCCC2)c2ccc(OCc3cncc(-n4ccc5c(N)ncnc54)c3)cc2n1 [Compound I-109] | > 1 | < 0.01 | < 1 |  | 
CCc1cc(NCCOC)c2ncc(CCc3cncc(-n4cc(-c5ccn(C)n5)c5c(N)ncnc54)c3)cc2n1 [Compound I-132] |  | < 0.01 | < 1 |  | 
CCNc1ccc2ccc(OCc3cncc(-n4cc([C@H]5CCCO5)c5c(N)ncnc54)c3)cc2n1 [Compound I-134] |  | < 0.01 | < 1 |  | 
CCc1cc(NCCOC)c2ccc(OCc3cncc(-n4cc([C@@H]5CCCO5)c5c(N)ncnc54)c3)cc2n1 [Compound I-141] |  | < 0.01 | < 1 |  | 
CCc1cc(N2CCOCC2)c2ccc(OCc3cncc(-n4cc([C@H]5CCCO5)c5c(N)ncnc54)c3)cc2n1 [Compound I-142] |  | 0.01 to 0.1 | < 1 |  | 
CCc1cc(N2CCOCC2)c2ccc(OCc3cncc(-n4cc([C@@H]5CCCO5)c5c(N)ncnc54)c3)cc2n1 [Compound I-143] |  | < 0.01 | < 1 |  | 
Nc1ncnc2c1c([C@H]1CCCO1)cn2-c1cncc(COc2ccc3ccc(N4CCC4)nc3c2)c1 [Compound I-144] |  | < 0.01 | < 1 |  | 
CCNc1ccc2ccc(OCc3cncc(-n4cc([C@@H]5CCCO5)c5c(N)ncnc54)c3)cc2n1 [Compound I-146] |  | < 0.01 | < 1 |  | 
CCc1cc(N2CCNCC2)c2ccc(OCc3cncc(-n4cc([C@@H]5CCCO5)c5c(N)ncnc54)c3)cc2n1 [Compound I-149] |  | < 0.01 | 1 to 10 |  | 
CCc1cc(N2CCOCC2)c2ncc(OCc3cncc(-n4cc(-c5ccn(C)n5)c5c(N)ncnc54)c3)cc2n1 [Compound I-150] |  | < 0.01 | < 1 |  | 
CCc1cc(NCCOC)c2ncc(OCc3cncc(-n4cc([C@@H]5CCCO5)c5c(N)ncnc54)c3)cc2n1 [Compound I-152] |  | < 0.01 | < 1 |  | 
CCc1cc(NC)c2ccc(OCc3cncc(-n4cc(-c5ccn(CCOC)n5)c5c(N)ncnc54)c3)cc2n1 [Compound I-154] |  | < 0.01 | < 1 |  | 
CCNc1ccc2ccc(CCc3cncc(-n4cc([C@H]5CCCO5)c5c(N)ncnc54)c3)cc2n1 [Compound I-156] |  | < 0.01 | 1 to 10 |  | 

SMILES | IC50 [1] [µM] | IC50 [2] [µM] | IC50 [3] [µM] | IC50 [4] [µM] | IC50 ([4]; METTL1/WDR4 6.25 nM, RNA 25 nM, 3H-SAM 60 nM, 20 min, read-out: METTL1 IC50) [µM]
CCc1cc(N(C)C2CC2)c2ccc(OCc3cncc(-n4cc([C@@H]5CCCO5)c5c(N)ncnc54)c3)cc2n1 [Compound I-167] |  | < 0.01 | < 1 |  | 
CN(CCO)c1ccc2ccc(OCc3cncc(-n4cc(-c5ccn(C)n5)c5c(N)ncnc54)c3)cc2n1 [Compound I-169] | > 1 | < 0.01 | < 1 |  | 
CCc1cc(NCCCN(C)C)c2ccc(OCc3cncc(-n4cc(-c5ccn(C)n5)c5c(N)ncnc54)c3)cc2n1 [Compound I-170] | > 1 | < 0.01 | < 1 |  | 
CS(=O)(=O)c1cn(-c2cncc(COc3ccc4ccc(N5CCC5)nc4c3)c2)c2ncnc(N)c12 [Compound I-185] | > 1 | 0.01 to 0.1 | 1 to 10 |  | 
Cn1ccc(-c2cn(-c3cncc(COc4ccc5ccc(N6CC(F)C6)nc5c4)c3)c3ncnc(N)c23)n1 [Compound I-192] | > 1 | < 0.01 | < 1 |  | 
Cn1ccc(-c2cn(-c3cncc(COc4ccc5ccc(N6CC(O)C6)nc5c4)c3)c3ncnc(N)c23)n1 [Compound I-193] | > 1 | < 0.01 | 1 to 10 |  | 
Cn1ccc(-c2cn(-c3cncc(COc4ccc5ccc(N6CC(F)(F)C6)nc5c4)c3)c3ncnc(N)c23)n1 [Compound I-212] | > 1 | < 0.01 | 1 to 10 |  | 
Cn1ccc(-c2cn(-c3cncc(COc4ccc5ccc(N6CC(N)C6)nc5c4)c3)c3ncnc(N)c23)n1 [Compound I-213] | > 1 | < 0.01 | < 1 |  | 
Cn1ccc(-c2cn(-c3cncc(COc4ccc5ccc(N6CC(=O)C6)nc5c4)c3)c3ncnc(N)c23)n1 [Compound I-217] | > 1 | < 0.01 | 1 to 10 |  | 
CCc1cc(NCCOC)c2c(F)cc(CCc3cncc(-n4cc(-c5ccn(C)n5)c5c(N)ncnc54)c3)cc2n1 [Compound I-228] |  | < 0.01 | < 1 |  | 
CCc1cc(NCCOC)c2c(F)cc(OCc3cncc(-n4cc(-c5ccn(C)n5)c5c(N)ncnc54)c3)cc2n1 [Compound I-229] |  | < 0.01 | < 1 |  | 
CCc1cc(NCCOC)c2ccc(OCc3cncc(-n4cc(COC)c5c(N)ncnc54)c3)cc2n1 [Compound I-231] | > 1 | < 0.01 | < 1 |  | 
CCc1cc(N(C)C)c2ccc(OCc3cncc(-n4ccc5c(N)ncnc54)c3)cc2n1 [Compound I-232] | > 1 | 0.01 to 0.1 | < 1 |  | 
COCc1cn(-c2cncc(COc3ccc4ccc(N5CCC5)nc4c3)c2)c2ncnc(N)c12 [Compound I-237] |  | < 0.01 | 1 to 10 |  | 
CC(=O)c1cn(-c2cncc(COc3ccc4ccc(N5CCC5)nc4c3)c2)c2ncnc(N)c12 [Compound I-238] | > 1 | < 0.01 | ≥ 10 |  | 
Cc1nc(-c2cn(-c3cncc(COc4ccc5ccc(N6CCC6)nc5c4)c3)c3ncnc(N)c23)co1 [Compound I-239] | > 1 | < 0.01 | 1 to 10 |  | 
